Test results as given in patent publication US7837991B2, “Method of cancer treatment by p53 protein control” (Aventis Pharma, S.A., priority 1994, dated 2010).

T1: bovine m-calpain (Bos taurus, UniProt Q27971)
T1 construct: purchased Sigma
T1 sequence (Q27971 20-700 limits assumed): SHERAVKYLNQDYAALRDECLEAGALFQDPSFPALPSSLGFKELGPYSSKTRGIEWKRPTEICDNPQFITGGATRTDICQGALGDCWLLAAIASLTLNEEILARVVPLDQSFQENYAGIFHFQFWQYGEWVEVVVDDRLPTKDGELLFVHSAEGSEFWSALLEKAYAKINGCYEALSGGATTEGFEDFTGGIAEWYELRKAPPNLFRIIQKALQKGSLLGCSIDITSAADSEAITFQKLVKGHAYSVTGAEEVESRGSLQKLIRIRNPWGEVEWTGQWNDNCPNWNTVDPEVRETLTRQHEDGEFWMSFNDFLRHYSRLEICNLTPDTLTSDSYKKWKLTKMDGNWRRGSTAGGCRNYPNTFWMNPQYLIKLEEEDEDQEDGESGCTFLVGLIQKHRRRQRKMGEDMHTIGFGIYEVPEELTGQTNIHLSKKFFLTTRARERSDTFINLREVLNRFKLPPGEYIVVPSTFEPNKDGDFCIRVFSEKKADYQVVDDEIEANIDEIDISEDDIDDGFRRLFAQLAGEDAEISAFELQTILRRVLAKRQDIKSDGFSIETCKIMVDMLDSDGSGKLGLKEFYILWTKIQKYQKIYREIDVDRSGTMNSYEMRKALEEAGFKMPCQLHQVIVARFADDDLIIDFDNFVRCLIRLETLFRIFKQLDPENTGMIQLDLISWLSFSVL
T1 sequence (P13135 1-263 partner): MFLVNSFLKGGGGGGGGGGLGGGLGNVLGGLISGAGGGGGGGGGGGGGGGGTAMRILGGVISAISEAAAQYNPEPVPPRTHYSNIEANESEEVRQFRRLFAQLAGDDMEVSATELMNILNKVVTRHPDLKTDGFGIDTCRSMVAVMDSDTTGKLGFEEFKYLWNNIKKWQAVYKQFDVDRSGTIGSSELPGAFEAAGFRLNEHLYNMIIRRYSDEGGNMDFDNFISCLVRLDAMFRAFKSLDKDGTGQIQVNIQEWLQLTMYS

B1: soybean trypsin inhibitor (protein, UniProt P01070 25-205, looked up)
Trypsin inhibitor A: DFVLDNEGNPLENGGTYYILSDITAFGGIRAAPTGNERCPLTVVQSRNELDKGIGTIISSPYRIRFIAEGHPLSLKFDSFAVIMLCVGIPTEWSVVEDLPEGPAVKIGENKDAMDGWFRLERVSDDEFNNYKLVFCPQQAEDDKCGDIGISIDHDDGTRRLVVSKNKPLVVQFQKLDKESL

Assays:
[1] = tested on: calpains of the cytoplasmic extract; assay: Degradation of p53 proteins by endogenous calpains in cytoplasmic extracts of Daudi or Jurkat cells; assay type: biochemical, human; settings: in the presence of calcium
Protocol: 2.1. Degradation by the endogenous calpains: mouse and human wild-type p53 proteins, as well as certain mutated forms (cf Example 1) were translated in the reticulocyte lysate and were then incubated in the presence of cytoplasmic extracts of Daudi or Jurkat human lymphoblastoid cells. The cytoplasmic extracts were prepared in the following manner: the cells (available at the ATCC) were cultured in DMEM medium supplemented with 10% foetal calf serum. The cells were then harvested, washed in PBS buffer and then incubated for 5 min in a detergent-free hypotonic lysis buffer (HEPES 20 mM, pH 7.5; KOAc 10 mM; MgOAc 1.5 mM; 2 ml per 5×10^8 cells). The lysis was completed using a Dounce homogenizer and then checked under a microscope. The nuclei were then removed by centrifugation at 2000 g for 5 min, and the supernatants were centrifuged at 10,000 g for 1 hour (Beckman SW60). The cytoplasmic extracts were then aliquoted in an amount of 5 to 12 mg/ml.

[2] = biological target: T1, bovine m-calpain; assay: Degradation of p53 proteins by exogenous m-calpain in rabbit reticulocyte lysate; assay type: biochemical; settings: m-calpain plus calcium, mouse and human wild-type and mutated p53
Description: 1.1. […] The proteins thus obtained are resistant to any degradation, even in the presence of a high concentration of calcium (cofactor essential for the calpains). The addition of bovine m-calpain (Sigma) to the reticulocyte lysate in the presence of calcium led to the rapid disappearance of the neosynthesized proteins and the appearance of proteolytic fragments which are resolvable by electrophoresis. The degradation resistance of other proteins such as dihydrofolate reductase or glyceraldehyde-3-phosphate dehydrogenase under the same experimental conditions indicates the substrate specificity of the reaction.
1.2. Use of inhibitors of calpain for modulating the levels of p53 proteins: in the above Example 1.1., it was shown that the addition of m-calpain induced degradation of the p53 proteins. In this example, in addition to m-calpain, various compounds were introduced into the medium in order to test their capacity to inhibit the activity of calpain.

Molecule | effect on calcium-dependent degradation of p53 proteins in cytoplasmic extracts [1] | inhibition of the degradation of the p53 proteins induced by the exogenous calpain [2]
O=S(=O)(F)Cc1ccccc1 [PMSF] | show that the degradation of these proteins is dependent on the calpains | 
O=C(O)CN(CCOCCOCCN(CC(=O)O)CC(=O)O)CC(=O)O [EGTA] |  | capable of inhibiting the degradation of the p53 proteins
aprotinin | show that the degradation of these proteins is dependent on the calpains | 
CC(=O)N[C@@H](CC(C)C)C(=O)N[C@@H](CC(C)C)C(=O)N[C@H](C=O)CCCNC(=N)N [leupeptin] | show that the degradation of these proteins is dependent on the calpains | 
B1 | show that the degradation of these proteins is dependent on the calpains | 
